In patent US12459967B2, “Modulators of 5′-nucleotidase, ecto and the use thereof” (Arcus Biosciences, Inc., priority 2016, dated 2025) one finds IC50 data, which are given here for 49 molecules.

Bounds are passed on as bounds.

The assay addresses T1, human CD73 (Homo sapiens, UniProt P21589).
T1 construct: host or cells: CHO-K1 (suspension pool CHO-CD73)
T1 sequence (P21589 27-549): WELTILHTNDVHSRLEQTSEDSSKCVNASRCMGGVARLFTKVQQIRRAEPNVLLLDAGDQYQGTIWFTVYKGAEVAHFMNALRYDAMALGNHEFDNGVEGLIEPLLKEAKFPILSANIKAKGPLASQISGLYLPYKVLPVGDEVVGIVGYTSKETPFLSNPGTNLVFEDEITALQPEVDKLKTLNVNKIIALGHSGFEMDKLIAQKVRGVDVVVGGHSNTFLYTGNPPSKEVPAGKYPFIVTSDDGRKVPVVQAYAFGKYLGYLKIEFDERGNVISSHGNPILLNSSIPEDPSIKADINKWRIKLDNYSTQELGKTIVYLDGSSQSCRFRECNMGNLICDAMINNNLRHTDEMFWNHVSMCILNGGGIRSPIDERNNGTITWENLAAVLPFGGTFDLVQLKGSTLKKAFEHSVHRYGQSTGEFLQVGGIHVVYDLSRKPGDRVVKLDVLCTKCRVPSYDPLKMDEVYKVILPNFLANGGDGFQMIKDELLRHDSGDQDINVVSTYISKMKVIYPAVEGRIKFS
The assay is described as follows: Inhibition of ecto-5′-nucleotidase (CD73) activity in CHO-CD73 cells, phosphate colorimetric readout. It counts as cell-based. As to conditions: CHO-K1 cells stably transfected with human CD73, 2500 cells per well, 25 μM AMP substrate, 50 minutes incubation at 37° C.; read-out: Potency: CD73 IC50. How it is done:
Inhibition of Ecto-5′-nucleotidase Activity. Compounds were evaluated to determine their ecto-5′-nucleotidase (CD73) inhibitory activity. Briefly, CHO-K1 cells stably transfected with human CD73 were generated by LakePharma (Belmont, CA) using molecular cloning of human CD73 (http://www.uniprot.org/uniprot/P21589) and mammalian transient expression vector (P21589.1). After antibiotic selection in CD OptiCHO cell media (Invitrogen, Catalog #12681-011) containing 5 μg/mL Puromycin and 200 μg/mL Hygromycin B, a suspension pool of CHO-CD73 cells was collected and frozen in 7.5% DMSO in cell media without antibiotics.
On the day of the experiment, one vial of CHO-CD73 cells was thawed and suspended in assay media which consisted of 20 mM HEPES, pH 7.4, 137 mM NaCl, 5.4 mM KCl, 1.3 mM CaCl2), 4.2 mM NaHCO3 and 0.1% glucose. To test the ability of compounds to inhibit CD73 enzymatic activity, 2 μL of 500 μM of compounds dissolved in DMSO (50×) were added to a 96-well polystyrene plate containing 58 μL of assay buffer. Next, 20 μL of CHO-CD73 cells in assay buffer were added to assay plate followed by 20 μL of 125 μM AMP (Adenosine 5′-monophosphate monohydrate) in assay buffer. Final assay conditions consisted of 2500 cells per well in 2% DMSO and 25 μM of AMP substrate. After 50 minutes of incubation (37° C. and 5% CO2) and centrifugation at 225×g for 5 mins, 80 μL of supernatant were transferred to a 96-well Spectra Plate (PerkinElmer, cat #6005640) which was pre-dispensed with 20 μL of PiColorLock Gold colorimetric assay reagents (Thermo, cat #30 300 30). The amount of inorganic phosphate was determined by reading the absorbance at 620 nm on an EnVision Multilabel Plate Reader (PerkinElmer). Enzymatic activity of CD73 was based on the amount of phosphate generated. Percentage of activity was calculated based on DMSO and no cells control wells. IC50 values of compounds were determined by four parameter non-linear regression fitting of percentage of activity in GraphPad Prism software.
As usually defined, the IC50 is the concentration that gives 50% inhibition. For the molecule `O=P(O)(O)CP(=O)(O)OC[C@H]1O[C@@H](n2cnc3c(NC4CCCC4)nc(Cl)nc32)[C@H](O)[C@@H]1O`, the half-inhibitory concentration (IC50) was less than 0.1 µM.

Turning to `CC(C)(C)c1ccc(CNc2nc(Cl)nc3c2ncn3[C@@H]2O[C@H](COP(=O)(O)CP(=O)(O)O)[C@@H](O)[C@H]2O)cc1`, the IC50 is less than 0.1 µM.

As for `Cc1ccc(CNc2ncnc3c2ncn3[C@@H]2O[C@H](COP(=O)(O)CP(=O)(O)O)[C@@H](O)[C@H]2O)cc1`, the concentration for half-maximal inhibition (IC50) was less than 0.1 µM.

In the case of `O=P(O)(O)CP(=O)(O)OC[C@H]1O[C@@H](n2cnc3c(NCc4cc(Cl)cc(Cl)c4)ncnc32)[C@H](O)[C@@H]1O`, the IC50 is less than 0.1 µM.

For `Cc1nc(NCc2ccccc2)c2ncn([C@@H]3O[C@H](COP(=O)(O)CP(=O)(O)O)[C@@H](O)[C@H]3O)c2n1`, the IC50 is less than 0.1 µM.

Regarding `C=Cc1nc(NCc2ccccc2)c2ncn([C@@H]3O[C@H](COP(=O)(O)CP(=O)(O)O)[C@@H](O)[C@H]3O)c2n1`, the IC50 is less than 0.1 µM.

For `CCc1nc(NCc2ccccc2)c2ncn([C@@H]3O[C@H](COP(=O)(O)CP(=O)(O)O)[C@@H](O)[C@H]3O)c2n1`, the half-maximal inhibitory concentration (IC50) is less than 0.1 µM.

As for `C=CCc1nc(NCc2ccccc2)c2ncn([C@@H]3O[C@H](COP(=O)(O)CP(=O)(O)O)[C@@H](O)[C@H]3O)c2n1`, the IC50 was less than 0.1 µM.

As to `CCCc1nc(NCc2ccccc2)c2ncn([C@@H]3O[C@H](COP(=O)(O)CP(=O)(O)O)[C@@H](O)[C@H]3O)c2n1`, the half-maximal inhibitory concentration (IC50) is less than 0.1 µM.

For the molecule `COc1nc(NCc2ccccc2)c2ncn([C@@H]3O[C@H](COP(=O)(O)CP(=O)(O)O)[C@@H](O)[C@H]3O)c2n1`, the IC50 was less than 0.1 µM.

In the case of `CNc1nc(NCc2ccccc2)c2ncn([C@@H]3O[C@H](COP(=O)(O)CP(=O)(O)O)[C@@H](O)[C@H]3O)c2n1`, the IC50 is less than 0.1 µM.

Regarding `CN(C)c1nc(NCc2ccccc2)c2ncn([C@@H]3O[C@H](COP(=O)(O)CP(=O)(O)O)[C@@H](O)[C@H]3O)c2n1`, the IC50 was less than 0.1 µM.

On to `O=P(O)(O)CP(=O)(O)OC[C@H]1O[C@@H](n2cnc3c(NCc4ccccc4)nc(N4CCCC4)nc32)[C@H](O)[C@@H]1O`, for which the half-maximal inhibitory concentration (IC50) was less than 0.1 µM.

For `O=P(O)(O)CP(=O)(O)OC[C@H]1O[C@@H](n2cnc3c(NCc4ccccc4)nc(N4CCCCC4)nc32)[C@H](O)[C@@H]1O`, the IC50 is less than 0.1 µM.

Turning to `O=P(O)(O)CP(=O)(O)OC[C@H]1O[C@@H](n2cnc3c(NCc4ccccc4)nc(N4CCOCC4)nc32)[C@H](O)[C@@H]1O`, the IC50 is less than 0.1 µM.

For `CC(C)Sc1nc(NCc2ccccc2)c2ncn([C@@H]3O[C@H](COP(=O)(O)CP(=O)(O)O)[C@@H](O)[C@H]3O)c2n1`, the concentration for half-maximal inhibition (IC50) was less than 0.1 µM.

`CC(C)S(=O)(=O)c1nc(NCc2ccccc2)c2ncn([C@@H]3O[C@H](COP(=O)(O)CP(=O)(O)O)[C@@H](O)[C@H]3O)c2n1`: the concentration for half-maximal inhibition (IC50) fell in the range of 0.1 to 1 µM.

For `Nc1nc(F)nc2c1ncn2[C@@H]1O[C@H](COP(=O)(O)CP(=O)(O)O)[C@@H](O)[C@@H]1O`, the IC50 was 0.1 to 1 µM.

Take `Nc1ncnc2c1ncn2[C@@H]1O[C@H](COP(=O)(O)CP(=O)(O)O)[C@@H](O)[C@H]1F`: the IC50 was greater than 1 µM.

For `Nc1nc(Cl)nc2c1ncn2[C@@H]1O[C@H](COP(=O)(O)CP(=O)(O)O)[C@@H](O)[C@@H]1F`, the IC50 was less than 0.1 µM.

Regarding `O=P(O)(O)CP(=O)(O)OC[C@H]1O[C@@H](n2cnc3c(NCc4ccccc4)nc(Cl)nc32)[C@@H](F)[C@@H]1O`, the IC50 is less than 0.1 µM.

`CN(Cc1ccccc1)c1nc(Cl)nc2c1ncn2[C@@H]1O[C@H](COP(=O)(O)CP(=O)(O)O)[C@@H](O)[C@@H]1F`: the half-maximal inhibitory concentration (IC50) was less than 0.1 µM.

In the case of `CNc1nc(Cl)nc2c1ncn2[C@@H]1O[C@H](COP(=O)(O)CP(=O)(O)O)[C@@H](O)[C@@H]1F`, the IC50 was less than 0.1 µM.

`CCNc1nc(Cl)nc2c1ncn2[C@@H]1O[C@H](COP(=O)(O)CP(=O)(O)O)[C@@H](O)[C@@H]1F`: the concentration for half-maximal inhibition (IC50) was less than 0.1 µM.

As to `CC(C)Nc1nc(Cl)nc2c1ncn2[C@@H]1O[C@H](COP(=O)(O)CP(=O)(O)O)[C@@H](O)[C@@H]1F`, the IC50 is less than 0.1 µM.

In the case of `O=P(O)(O)CP(=O)(O)OC[C@H]1O[C@@H](n2cnc3c(NCC4CC4)nc(Cl)nc32)[C@@H](F)[C@@H]1O`, the IC50 is less than 0.1 µM.

On to `O=P(O)(O)CP(=O)(O)OC[C@H]1O[C@@H](n2cnc3c(NC4CCCC4)nc(Cl)nc32)[C@@H](F)[C@@H]1O`, for which the 50% inhibitory concentration (IC50) was less than 0.1 µM.

For the molecule `O=P(O)(O)CP(=O)(O)OC[C@H]1O[C@@H](n2cnc3c(N[C@H]4CCOC4)nc(Cl)nc32)[C@@H](F)[C@@H]1O`, the half-maximal inhibitory concentration (IC50) is less than 0.1 µM.

Take `O=P(O)(O)CP(=O)(O)OC[C@H]1O[C@@H](n2cnc3c(N[C@@H]4CCOC4)nc(Cl)nc32)[C@@H](F)[C@@H]1O`: the IC50 was less than 0.1 µM.

As to `O=P(O)(O)CP(=O)(O)OC[C@H]1O[C@@H](n2cnc3c(NC4CCOCC4)nc(Cl)nc32)[C@@H](F)[C@@H]1O`, the IC50 was less than 0.1 µM.

As for `O=P(O)(O)CP(=O)(O)OC[C@H]1O[C@@H](n2cnc3c(N4CCCC4)nc(Cl)nc32)[C@@H](F)[C@@H]1O`, the 50% inhibitory concentration (IC50) is less than 0.1 µM.

`O=P(O)(O)CP(=O)(O)OC[C@H]1O[C@@H](n2cnc3c(N4CCCCC4)nc(Cl)nc32)[C@@H](F)[C@@H]1O`: the half-maximal inhibitory concentration (IC50) is less than 0.1 µM.

Turning to `O=P(O)(O)CP(=O)(O)OC[C@H]1O[C@@H](n2cnc3c(N4CCOCC4)nc(Cl)nc32)[C@@H](F)[C@@H]1O`, the IC50 is less than 0.1 µM.

Turning to `O=P(O)(O)CP(=O)(O)OC[C@H]1O[C@@H](n2cnc3c(N4Cc5ccccc5C4)nc(Cl)nc32)[C@@H](F)[C@@H]1O`, the IC50 was less than 0.1 µM.

On to `O=P(O)(O)CP(=O)(O)OC[C@H]1O[C@@H](n2cnc3c(NCc4ccc(Cl)cc4)nc(Cl)nc32)[C@@H](F)[C@@H]1O`, for which the IC50 was less than 0.1 µM.

`O=P(O)(O)CP(=O)(O)OC[C@H]1O[C@@H](n2cnc3c(NCc4ccc(F)cc4)nc(Cl)nc32)[C@@H](F)[C@@H]1O`: the half-maximal inhibitory concentration (IC50) was less than 0.1 µM.

Take `C[C@H](Nc1nc(Cl)nc2c1ccn2[C@@H]1O[C@H](COP(=O)(O)CP(=O)(O)O)[C@@H](O)[C@H]1O)c1ccc(F)cc1`: the IC50 is less than 0.1 µM.

In the case of `C[C@@H](Nc1nc(Cl)nc2c1ccn2[C@@H]1O[C@H](COP(=O)(O)CP(=O)(O)O)[C@@H](O)[C@@H]1F)c1ccccc1`, the half-maximal inhibitory concentration (IC50) is less than 0.1 µM.

Regarding `C[C@H](Nc1nc(Cl)nc2c1ccn2[C@@H]1O[C@H](COP(=O)(O)CP(=O)(O)O)[C@@H](O)[C@@H]1F)c1ccccc1`, the IC50 is less than 0.1 µM.

Turning to `C[C@H](Nc1nc(Cl)nc2c1ccn2[C@@H]1O[C@H](COP(=O)(O)CP(=O)(O)O)[C@@H](O)[C@@H]1F)c1cccc(F)c1`, the IC50 was less than 0.1 µM.

For `C[C@@H](Nc1nc(Cl)nc2c1ccn2[C@@H]1O[C@H](COP(=O)(O)CP(=O)(O)O)[C@@H](O)[C@@H]1F)c1ccc(F)cc1`, the half-inhibitory concentration (IC50) is less than 0.1 µM.

As to `C[C@H](Nc1nc(Cl)nc2c1ccn2[C@@H]1O[C@H](COP(=O)(O)CP(=O)(O)O)[C@@H](O)[C@@H]1F)c1ccc(F)cc1`, the IC50 is less than 0.1 µM.

For `C[C@H](Nc1nc(Cl)nc2c1ccn2[C@@H]1O[C@H](COP(=O)(O)CP(=O)(O)O)[C@@H](O)[C@@H]1F)c1ccccc1F`, the half-inhibitory concentration (IC50) is less than 0.1 µM.

Turning to `C[C@@H](Nc1nc(Cl)nc2c1ccn2[C@@H]1O[C@H](COP(=O)(O)CP(=O)(O)O)[C@@H](O)[C@@H]1F)c1ccccc1F`, the 50% inhibitory concentration (IC50) was less than 0.1 µM.

Consider `C[C@@H](Nc1nc(Cl)nc2c1ccn2[C@@H]1O[C@H](COP(=O)(O)CP(=O)(O)O)[C@@H](O)[C@@H]1F)c1cccc(F)c1`, for which the IC50 was less than 0.1 µM.

With `O=P(O)(O)CP(=O)(O)OC[C@H]1O[C@@H](n2cnc3c(NC4CCCC4)nc(Cl)cc32)[C@H](O)[C@@H]1O`, the concentration for half-maximal inhibition (IC50) is less than 0.1 µM.

Take `O=P(O)(O)CP(=O)(O)OC[C@H]1O[C@@H](n2cnc3c(NC4CCCC4)nc(Cl)cc32)[C@@H](F)[C@@H]1O`: the IC50 was less than 0.1 µM.

Take `CN(c1nc(Cl)cc2c1ncn2[C@@H]1O[C@H](COP(=O)(O)CP(=O)(O)O)[C@@H](O)[C@@H]1F)C1CCCC1`: the half-inhibitory concentration (IC50) was less than 0.1 µM.

Consider `O=P(O)(O)CP(=O)(O)OC[C@H]1O[C@@H](n2ncc3c(NC4CCCC4)ncnc32)[C@H](O)[C@@H]1O`, for which the IC50 is less than 0.1 µM.
